Some results are limits rather than exact numbers.

The target in experiment [1] is T1, rat lung ECE (Rattus norvegicus, UniProt P42893).
T1 construct: The solution was ultracentrifuged to obtain a supernatant, which can be used as the rat lung ECE; from tissue; host or cells: rat lung
T1 sequence (P42893 1-762): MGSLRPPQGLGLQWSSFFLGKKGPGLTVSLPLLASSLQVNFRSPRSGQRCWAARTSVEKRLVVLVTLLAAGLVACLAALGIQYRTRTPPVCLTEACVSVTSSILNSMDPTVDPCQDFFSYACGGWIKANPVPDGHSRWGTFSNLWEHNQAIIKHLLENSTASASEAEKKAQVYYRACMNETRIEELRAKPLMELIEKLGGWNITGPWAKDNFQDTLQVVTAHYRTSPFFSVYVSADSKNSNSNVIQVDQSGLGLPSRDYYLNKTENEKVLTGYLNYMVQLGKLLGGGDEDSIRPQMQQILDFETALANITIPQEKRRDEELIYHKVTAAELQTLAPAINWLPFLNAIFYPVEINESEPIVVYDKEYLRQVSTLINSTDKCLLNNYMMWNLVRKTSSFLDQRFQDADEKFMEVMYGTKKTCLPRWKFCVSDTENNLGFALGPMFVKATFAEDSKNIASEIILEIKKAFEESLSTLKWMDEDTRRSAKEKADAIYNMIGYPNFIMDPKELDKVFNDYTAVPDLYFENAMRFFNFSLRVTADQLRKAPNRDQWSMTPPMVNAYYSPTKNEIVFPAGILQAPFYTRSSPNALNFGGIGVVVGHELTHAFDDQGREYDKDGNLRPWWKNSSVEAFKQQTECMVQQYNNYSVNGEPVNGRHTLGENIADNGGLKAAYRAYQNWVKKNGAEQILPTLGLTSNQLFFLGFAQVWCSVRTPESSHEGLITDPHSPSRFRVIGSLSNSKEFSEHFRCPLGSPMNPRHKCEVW
As to the kind of experiment: ECE inhibitory activity (rat lung ECE, conversion of human big ET-1 to ET-1, sandwich enzyme immunoassay). Format: biochemical. Particulars: rat lung ECE 10 µg, human big ET-1 0.8µg, 37°C, one hour. The procedure:
Preparation of rat lung ECE and measurement of ECE inhibitory activity
Rat lung tissue was homogenized with a homogenizer in ice-cold 20 mM Tris-HCl buffer (pH7.5) containing 5 mM magnesium chloride, 1 mM phenylmethylsulfonyl fluoride (PMSF), 20 µM pepstatin A, and 20 µM leupeptin. The homogenate was centrifuged at 800 x G, and the supernatant was ultracentrifuged at 100,000 x G. Then, the procedures in which the resulting pellet was resuspended in the above buffer and ultracentrifuged as shown above, were repeated further twice so that plasma components and the like were removed. The resulting pellet was suspended, homogenized with a glass homogenizer, and ultracentrifuged. The resulting pellet was solubilized in 0.5% Triton X- 100. The solution was ultracentrifuged to obtain a supernatant, which can be used as the rat lung ECE. Each test compound and the rat lung ECE (10 µg) were preincubated at 37°C for 15 minutes in a 100mM Tris-HCl buffer (pH7.0) containing 1mM NEM, 100µM leupeptin, and 20µM pepstatin A, and then human big ET-1 (0.8µg) was added thereto (totally 200µl), and the mixture was incubated at 37°C for one hour.
The reaction was stopped by the addition of EDTA to give a final concentration of 1mM. ECE activities were determined to quantify the produced ET-1 by the ET-1 specific sandwich enzyme immunoassay method.
ECE inhibitory activities of the test compounds were evaluated by determination of the ECE activities in the presence or absence of the test compounds.

Experiment [2] addresses T2, ECE (Rattus norvegicus, UniProt P42893).
T2 construct: from tissue; host or cells: whole anesthetized male SD rat (in vivo)
T2 sequence (P42893 1-762): T1 sequence (P42893 1-762)
Briefly: Effect on the change in blood pressure induced by big ET-1 in anesthetized rats (ECE inhibition in vivo). Also on record: species or system Male SD rat. To be noted: for Increase in systolic pressure: 15 minutes before big ET-1 (1nmol/kg i.v.), vehicle group 96 ± 4. On the procedure: Test 2 Effect on the change in blood pressure induced by big ET-1 in rats
Male SD rat (body weight 230∼280g) was anesthetized with sodium thiobarbiturate (65mg/kg, i.p.) and fixed on a warming surgical bed, and the right femoral artery and the vein were cannulated for measurement of arterial blood pressure and for injection of test compounds, respectively. The ganglia were blocked by intraperitoneal administration of pentolinium (10mg/kg). After stabilization of blood pressure for about 10 minutes, test compound or its vehicle (polyethylene glycol 400) was administered intravenously (0.5ml/kg). Fifteen minutes later, the big ET-1 (1nmol/kg) was administered intravenously. ECE inhibitory activities of the test compounds in vivo shown by an index of the change in blood pressure induced by big ET-1 were evaluated by inhibitory ratio to that of the vehicle group.

Experiment [3] concerns the target stromelissin (Homo sapiens, UniProt P08254). Briefly: Inhibitory activity against metalloproteases other than ECE (stromelissin). Format: biochemical. Particulars: at 10^-5M. An excerpt: (§1) The inhibitory activity of the compound of Preparation 1 against metalloproteases other than ECE, such as endopeptidase, stromelissin, and the like, are under 20% at 10^-5M, and therefore, the compound is highly specific to ECE.

In experiment [4] the test system is endopeptidase. Briefly: Inhibitory activity against metalloproteases other than ECE (endopeptidase). The class given is biochemical. To be noted: at 10^-5M.
Source text: as §1

stromelissin, sequence (P08254 100-477): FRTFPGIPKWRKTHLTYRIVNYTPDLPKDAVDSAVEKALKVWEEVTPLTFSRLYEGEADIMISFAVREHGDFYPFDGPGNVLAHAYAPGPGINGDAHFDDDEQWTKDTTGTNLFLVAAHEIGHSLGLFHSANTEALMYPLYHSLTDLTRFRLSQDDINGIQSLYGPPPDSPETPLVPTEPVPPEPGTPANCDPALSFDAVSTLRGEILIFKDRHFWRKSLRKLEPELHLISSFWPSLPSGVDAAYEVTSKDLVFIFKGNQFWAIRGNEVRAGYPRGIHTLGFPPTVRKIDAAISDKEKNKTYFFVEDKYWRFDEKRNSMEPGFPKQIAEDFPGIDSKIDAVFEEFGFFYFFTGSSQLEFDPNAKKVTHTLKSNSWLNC

On to `Cc1ccc(S(=O)(=O)NC(=O)Nc2c(C#N)cnn2C2CCCCC2)cc1` [Example 4, 4-cyano-1-cyclohexyl-5-{3-(4-toluenesulfonyl)ureido}-(1H)-pyrazole], for which half-maximal inhibition in experiment [1] (IC50) required 290 nM.

`Cc1nn(-c2ccccc2)c(NC(=O)NS(=O)(=O)c2ccc(Cl)cc2)c1C#N` [Example 37, 4-cyano-3-methyl-1-phenyl-5-{3-(4-chlorobenzenesulfonyl)ureido}-(1H)-pyrazole]: the IC50 in experiment [1] was 45 nM. Also, the “Big ET-1-induced increasing in blood pressure” value in experiment [2] (3 and 10mg/kg intravenously) is recorded as “apparently inhibited”. The “Increase in systolic pressure” value in experiment [2] (Dose 3 mg/kg intravenously) was determined as 65 ± 8 mmHg; in experiment [2] (Dose 10 mg/kg intravenously), 34 ± 6 mmHg.

For `Cc1ccc(S(=O)(=O)NC(=O)Nc2c(C#N)cnn2-c2ccccc2)cc1` [Preparation 1, 4-cyano-1-phenyl-5-{3-(4-toluenesulfonyl)ureido}-(1H)-pyrazole], in experiment [1], the IC50 stood at 4600 nM. In experiment [3], the inhibition at 10 µM is below 20%. In addition, the inhibitory activity result in experiment [4] is “under 20%”.

For orientation: IC50 means the midpoint of a concentration-inhibition curve. Read a low IC50 as higher potency. The term inhibition denotes the drop in the measured response relative to a control, in per cent.
